This data set in a line: spectral absorption of the colored coupler in methanol. The class given is physicochemical. As to the method: 10.1 g of compound c synthesized by the method described in U.S. Patent 4,138,258 was dissolved in 60 ml of N,N-dimethylformamide and 60 ml of methyl cellosolve. While cooling the resulting solution with ice, 4.3 ml of concentrated hydrochloric acid was added thereto and a solution of 1.84 g of sodium nitrite in 5 ml of water was added dropwise thereto to prepare a diazonium solution. 60 ml of methyl cellosolve and 20 ml of water were added to 7.8 g of the compound b and 8.2 g of sodium acetate. While stirring the resulting solution under ice cooling, the above diazonium solution was added dropwise thereto. After dropwise addition, the mixture was stirred for one hour and then at room temperature for 2 hours. The precipitated crystal was recovered by filtration, washed with water, dried and dispersed in 500 ml of methanol. The dispersion was heated to reflux for one hour and then allowed to stand to cool it. The crystal was recovered by filtration, washed with methanol and dried to give 13.6 g of the desired coupler (1) as a red crystal with a melting point of 269 to 272°C (decomposition). The structure of the compound was confirmed by ¹HNMR spectrum, mass spectrum and elemental analysis.
75 ml of methyl cellosolve and 26 ml of water were added to 10.1 g of the compound b and 10.7 g of sodium acetate. While stirring the resulting solution under ice cooling, the above diazonium solution was added dropwise thereto. After dropwise addition, the mixture was stirred for one hour and then at room temperature for 2 hours. The precipitated crystal was recovered by filtration and dispersed in 200 ml of methanol. A solution of 2.2 g of sodium hydroxide in 10 ml of water was added dropwise thereto. The mixture was stirred for 3 hours and neutralized with concentrated hydrochloric acid. The precipitated crystal was washed with water and then methanol and dried. The resulting crude crystal was purified from hot methanol in the same manner as in Synthesis Example 1 to give 14.8 g of the desired coupler (3) with a melting point of 246 to 251°C (decomposition). […]

Take `CCCCCCCCC(CCCCCC)COCCCNC(=O)c1cc(OCCOc2ccc(N=Nc3c(C)c(C#N)c(=O)n(-c4ccccc4C(=O)O)c3O)cc2)c2ccccc2c1O` (stereo not drawn) [(22)]: the “spectral absorption characteristics as a yellow colored coupler” value was “good”. For the same compound, where the note is “in methanol”, the maximum absorption wavelength amounted to 458.2 nm and the molecular extinction coefficient is reported as 42800.

The record behind these values is EP0423727B1, “Silver halide color photographic material containing colored coupler” (FUJI PHOTO FILM CO., LTD., priority 1989, dated 1991).
